Experimental data from US6376510B1, “Neuromuscular relaxants” (Newlaxant LLC, priority 1997, dated 2002).

System: anesthetized rats (evoked responses of anterior tibial muscle)
Assay: Muscle relaxant (neuromuscular blocking) properties, anesthetized rat (Example 9, Table 9)
Conditions: rat; for ED50: intravenous dose causing 50% neuromuscular block, spread in brackets; for RI (recovery index): spontaneous recovery, 25-75% neuromuscular response; for Onset: time to 80-85% neuromuscular block
Source text: The data on muscle relaxant action were obtained on anesthetized rats, and when indicated, also on juvenile pigs
Adult, male albino rats were anesthetized with pentobarbital injected intraperitoneally. Juvenile, Duroc pigs 9-12 kg body weight were anesthetized with Chloralose Nembutal sodium mixture intraperitoneally after deep sedation with inhaled halothane. The trachea was cannulated for artificial respiration via a small animal respirator. The carotid artery was cannulated for recording blood pressure via a transducer and heart rate by a cardiotachograph on a polygraph. One external jugular vein was cannulated for i.v. drug administration. Neuromuscular function was monitored by electromyography, recording evoked responses from the anterior tibial muscle as a result of supramaximal nerve stimuli consisting of single or “train-of-four” rectangular pulses of 0.1-0.2 msec duration every 10-12 seconds, delivered to the sciatic or common peroneal nerve by a laboratory nerve stimulator. Another mode of stimulation included repeated single stimuli delivered at 0.1 Hz or 1 Hz. […] The agents were dissolved in physiologic saline and injected intravenously at appropriate time intervals. The intensity, onset, and duration of neuromuscular block and its type were determined with each agent. Through administering several doses, the doses corresponding to 50%, 80% and 90% neuromuscular block were determined. All agents were compared with selected standard neuromuscular blocking compounds, e.g., rocuronium.
Onset=time in minutes to 80-85% neuromuscular block.
RI=recovery index, minutes, spontaneous recovery, 25-75% neuromuscular response.
VB=vagal block, %, at 80-85% neuromuscular blocking dose.
HR=change in heart rate, %, at 80-85% neuromuscular blocking dose.
BP=change in arterial blood pressure, %, at 80-85% neuromuscular blocking dose.

[1] = at 80-85% neuromuscular blocking dose

Compound | % VB at ED80 nmb (vagal block) (in vivo) | BP (change in arterial blood pressure) (in vivo) | HR (change in heart rate) (in vivo) | ED50 | RI (recovery index) | Onset | % VB at ED80 nmb (vagal block) [1] | BP (change in arterial blood pressure) [1] | HR (change in heart rate) [1]
CC(=O)Oc1ccc(C[N+](C)(C)C2CCC(OC(=O)CCCC(=O)OC3CCC([N+](C)(C)Cc4ccc(OC(C)=O)c(OC(C)=O)c4)CC3)CC2)cc1OC(C)=O.[Br-].[Br-] (stereo not drawn) [Bis[4-dimethylaminocyclohexyl]glutarate bis(3,4-diacetoxybenzyl bromide)] | 64 (22) % | −13 (6) % | −5 (3) % | 700 (122) μg/kg | 0.8 (0.07) min | 0.75 (0.05) min | – | – | –
COc1cc(C[N+](C)(C)C2CCC(OC(=O)CCCC(=O)OC3CCC([N+](C)(C)Cc4ccc(OC(C)=O)c(OC)c4)CC3)CC2)ccc1OC(C)=O.[Br-].[Br-] (stereo not drawn) [Bis[4-dimethylaminocyclohexyl]glutarate bis(4-acetoxy-3-methoxybenzyl bromide)] | – | – | – | 2075 (188) μg/kg | 0.9 (0.05) min | 0.84 (0.06) min | 73 (9) % | −14 (5) % | −5 (2) %
Bis[4-dimethylaminocyclohexyl]fumarate bis(4-acetoxy-3-methoxybenzyl bromide) | – | – | – | 2138 (128) μg/kg | 0.65 (0.05) min | 1.3 (0.05) min | – | – | –
Bis[4-dimethylaminocyclohexyl]glutarate bis(benzyl bromide) [reference compound] | – | – | – | 2500 µg/kg | 1.65 (0.1) min | 1.6 (0.1) min | – | – | –
Bis[N-(3,4-diacetoxybenzyl)-6-azabicyclo[3.2.1]octanium-3-yl]glutarate dibromide | 19 (4) % | 0% | 0% | 440 (39) μg/kg | 0.4 (0.05) min | 0.55 (0.05) min | – | – | –
Bis[N-(3,4-dipropionyloxybenzyl)-6-azabicyclo[3.2.1]octanium-3-yl]glutarate dibromide | 63 (7) % | +8 (2) % | 0% | 1002 (174) μg/kg | 0.47 (0.03) min | 0.5 (0.03) min | – | – | –
Bis[N-(4-acetoxy-3,5-dimethoxybenzyl)-6-azabicyclo[3.2.1]octanium-3-yl]glutarate dibromide | 75 (5) % | +21 (2) % | 0% | 3050 (193) μg/kg | 1.4 (0.1) min | 0.75 (0.05) min | – | – | –
Bis[N-(4-acetoxy-3-methoxybenzyl)-6-azabicyclo[3.2.1]octanium-3-yl]-glutarate dibromide | 68 (96) % | +12 (5) % | 0% | 1425 (161) μg/kg | 0.65 (0.05) min | 0.53 (0.04) min | – | – | –
